According to patent publication US6071966A, “1-amino-alkylcyclohexane NMDA receptor antagonists” (Merz + Co. GmbH & Co., priority 1998, dated 2000):

Key:
traction reflex in mice = experiment: Traction reflex test (myorelaxant action); type: in vivo; conditions: i.p., Table 8
Procedure: (§1) NMR female mice (18-28 g) housed 5 per cage were used for the maximal electroshock (MES) and motor impairment tests. […] All compounds were dissolved in 0.9% saline.
(§2) The MES test was performed together with tests for myorelaxant action (traction reflex) and motor coordination (rotarod). For the traction reflex test mice were placed with their forepaws on a horizontal rod and were required to place all 4 paws on the wire within 10 seconds. To test ataxia (motor coordination) mice were placed on rotarod (5 rpm) and were required to remain on the rod for 1 minute. […] These tests were followed by MES (100 Hz, 0.5 second shock duration, 50 mA shock intensity, 0.9 ms impulse duration, Ugo Basile) applied through corneal electrodes. The presence of tonic convulsions was scored (tonic extension of hind paws with minimum angle to the body of 90°). The aim was to obtain ED50 s for all parameters scored (anticonvulsive activity and motor side effects) with use of the Litchfield Wilcoxon test for quantal dose responses. Division of the ED50 for side effects (ataxia or myorelaxation) by the ED50 for antagonism of electroshock convulsions was used as a therapeutic index (TI). […]

[1] = system: rotarod performance in mice; experiment: Rotarod test (motor coordination, ataxia); type: in vivo; conditions: i.p., Table 8
Procedure: (§3) All compounds were dissolved in 0.9% saline.
(§4) The MES test was performed together with tests for myorelaxant action (traction reflex) and motor coordination (rotarod). For the traction reflex test mice were placed with their forepaws on a horizontal rod and were required to place all 4 paws on the wire within 10 seconds. To test ataxia (motor coordination) mice were placed on rotarod (5 rpm) and were required to remain on the rod for 1 minute. […] These tests were followed by MES (100 Hz, 0.5 second shock duration, 50 mA shock intensity, 0.9 ms impulse duration, Ugo Basile) applied through corneal electrodes. The presence of tonic convulsions was scored (tonic extension of hind paws with minimum angle to the body of 90°). The aim was to obtain ED50 s for all parameters scored (anticonvulsive activity and motor side effects) with use of the Litchfield Wilcoxon test for quantal dose responses. Division of the ED50 for side effects (ataxia or myorelaxation) by the ED50 for antagonism of electroshock convulsions was used as a therapeutic index (TI).
(§5) Pearson product moment correlation analysis (Sigma Stat, Jandel Scientific) was used to compare in vitro potencies and in vivo anticonvulsant activity.

[2] = i.p.; Table 8
cortical neurones = experiment: Excitotoxicity: glutamate toxicity in cultured cortical neurones (MTT test); type: cell-based, rat; conditions: words
Procedure: Cortical neurones were obtained from cerebral cortices of 17/18 day old fetal rats (Wistar), in general following the dissociation procedure described by. After short trypsinization and gentle trituration with fire-polished Pasteur pipettes, the cell suspension was washed by centrifugation. Cells were suspended in serum-free Neurobasal medium with B27 supplement (GIBCO) before plating onto poly-L-lysine (Sigma; 0.2mg/ml, 20 h, 4° C.) and laminin (Sigma; 2 μg/ml, 1h, 37° C.)-coated 96-well plates (Falcon, Primaria) at a density of 5×10^4 cells/well. Cortical neurones were maintained at 37° C. in humidified 10% CO2 /90% air. […]
Exposure to EAA was performed in serum-free Neurobasal medium containing 100 μM glutamate and the drug to be tested. After 20 h of incubation, the cytotoxic effect was morphologically examined under a phase contrast microscope and biochemically quantified by measuring cell viability with the MTT test (Promega). […] These samples were then read using an Elisa plate reader (Thermomax, MWG Biotech) at a wavelength of 570 nm. […]
IC50 s in patch clamp, excitotoxicity, and binding studies were calculated according to the four parameter alogistic equation using the Grafit computer program (Erithacus Software, England). Ki value for binding studies were then determined according to Cheng and Prusoff. […]

[3] = Traction reflex test (myorelaxant action); type: in vivo; conditions: mouse, traction reflex versus mes, ip; mice, i.p.; Table 8; read-out: TI Tract. (ED50 traction reflex impairment / ED50 MES)
Procedure: as §1, §2

[4] = Rotarod test (motor coordination, ataxia); type: in vivo; conditions: mouse, rotarod versus mes, ip; mice, i.p.; Table 8; read-out: TI Rot. (ED50 rotarod failure / ED50 MES)
Procedure: as §3, §4, §5

NMDA receptor = experiment: [3H]-(+)-MK-801 receptor binding to rat cortical membranes; conditions: read-out: [3H]MK-801 IC50, [3H]-(+)-MK-801 5 nM, Table 7
Procedure: Male Sprague-Dawley rats (200-250 g) were decapitated and their brains were removed rapidly. The cortex was dissected and homogenized in 20 volumes of ice-cold 0.32 M sucrose using a glass-Teflon homogenizer. The homogenate was centrifuged at 1000×g for 10 minutes. The pellet was discarded and the supernatant centrifuged at 20,000×g for 20 minutes. The resulting pellet was re-suspended in 20 volumes of distilled water and centrifuged for 20 minutes at 8000×g. Then the supernatant and the buffy coat were centrifuged three times (48,000×g for 20 minutes) in the presence of 50 mM Tris-HCl, pH 8.0. All centrifugation steps were carried out at 4° C. After resuspension in 5 volumes of 50 mM Tris-HCl, pH 8.0 the membrane suspension was frozen rapidly at -80° C. On the day of assay the membranes were thawed and washed four times by resuspension in 50 mM Tris-HCl, pH 8.0 and centrifugation at 48,000×g for 20 minutes. The final pellet was suspended in assay buffer. The amount of protein in the final membrane preparation was determined according to the method of Lowry with some modifications. The final protein concentration used for our studies was between 250-500 μg/ml.
Membranes were re-suspended and incubated in 50 mM Tris-HCl, pH 8.0. […] Incubations were terminated using a Millipore filter system. The samples were rinsed three times with 2.5 ml ice cold assay buffer over glass fiber filters obtained from Schleicher & Schuell under a constant vacuum. Filtration was performed as rapidly as possible. Following separation and rinse, the filters were placed into scintillation liquid (5 ml; Ultima Gold) and radioactivity retained on the filters was determined with a conventional liquid scintillation counter (Hewlett Packard, Liquid Scintillation Analyser).
IC50 s in patch clamp, excitotoxicity, and binding studies were calculated according to the four parameter alogistic equation using the Grafit computer program (Erithacus Software, England). Ki value for binding studies were then determined according to Cheng and Prusoff. Binding values presented are means ±SEM of 3-5 determinations (each performed in duplicate).

[5] = Solubility (analytical certificates); type: physicochemical
[6] = system: MES-induced convulsions in mice; experiment: Anticonvulsive activity: maximal electroshock (MES) test; type: in vivo; conditions: i.p., Table 8, 30 min
Procedure: as §1, §4, §5

| Compound | TI Tract. (ED50 traction reflex impairment / ED50 MES) (traction reflex in mice) | TI Rot. (ED50 rotarod failure / ED50 MES) [1] | Min Lethality [2] | neuroprotection in vitro (cortical neurones) | selectivity ratio [3] | selectivity ratio [4] | IC50 (NMDA receptor) | Solubility [5] | MES ED50 [6] |
| --- | --- | --- | --- | --- | --- | --- | --- | --- | --- |
| CC1(C)CC(C)(C)CC(C)(N2CCCC2)C1.Cl [MRZ 2/705, N-(1,3,3,5,5-Pentamethylcyclohexyl) pyrrolidine hydrochloride] | 3.9 | 5.4 | > 50 mg/kg | – | – | – | – | – | – |
| CC1(C)CC(C)(C)CC(C)(N)C1 [Mrz 2/579, 1-amino-1,3,3,5,5-pentamethylcyclohexane] | – | – | 108 mg/kg | most potent | 2.9 | 5 | – | – | – |
| CC1CC(C)CC(C)(N)C1 (stereo not shown) [Mrz 2/616, 1-amino-1,3,5-trimethylcyclohexane] | – | – | > 50 mg/kg | – | 1 | 1.4 | 150 µM | soluble in water, chloroform | – |
| CC1(C)CCCC(C)(N)C1 (stereo not shown) [Mrz 2/621] | 1.8 | 1.5 | > 60 mg/kg | – | – | – | – | – | 36.9 mg/kg i.p. |
